Results: BindingDB's records for doi:10.1016/j.bmcl.2007.07.028 (Bristol-Myers Squibb, 2007)

Assay: Antagonist activity at CCR2 in human PBMCs assessed as inhibition of MCP1-induced chemotaxis

SMILES	IC50 [nM]
Cc1ccc(CNC[C@H](NC(=O)CNC(=O)c2cc(C(F)(F)F)ccc2NC(=O)NC(C)C)C(=O)NC(C)(C)C)c(C)c1 [(S)-1-(2-((2-(3-(2,4-dimethylbenzylamino)-1-(tert-butylamino)-1-oxopropan-2-ylamino)-2-oxoethyl)carbamoyl)-4-(trifluoromethyl)phenyl)-3-isopropylurea]	240
Cc1ccc(CNC[C@H](NC(=O)CNC(=O)c2cc(C(F)(F)F)ccc2NCc2ccccc2)C(=O)NC(C)(C)C)c(C)c1 [(S)-N-(2-(3-(2,4-dimethylbenzylamino)-1-(tert-butylamino)-1-oxopropan-2-ylamino)-2-oxoethyl)-2-(benzylamino)-5-(trifluoromethyl)benzamide]	39
CCNc1ccc(C(F)(F)F)cc1C(=O)NCC(=O)N[C@@H](CNCc1ccc(C)cc1C)C(=O)NC(C)(C)C [(S)-N-(2-(3-(2,4-dimethylbenzylamino)-1-(tert-butylamino)-1-oxopropan-2-ylamino)-2-oxoethyl)-2-(ethylamino)-5-(trifluoromethyl)benzamide]	100
Cc1ccc(CNC[C@H](NC(=O)CNC(=O)c2cc(C(F)(F)F)ccc2N)C(=O)NC(C)(C)C)c(C)c1 [(S)-N-(2-(3-(2,4-dimethylbenzylamino)-1-(tert-butylamino)-1-oxopropan-2-ylamino)-2-oxoethyl)-2-amino-5-(trifluoromethyl)benzamide]	260
CCNc1cc(C(=O)NCC(=O)N[C@@H](CNCc2ccc(C)cc2C)C(=O)NC(C)(C)C)cc(C(F)(F)F)c1 [(S)-N-(2-(3-(2,4-dimethylbenzylamino)-1-(tert-butylamino)-1-oxopropan-2-ylamino)-2-oxoethyl)-3-(ethylamino)-5-(trifluoromethyl)benzamide]	190
Cc1ccc(CNC[C@H](NC(=O)CNC(=O)c2cccc(C(F)(F)F)c2)C(=O)NC(C)(C)C)c(C)c1 [(S)-N-(2-(3-(2,4-dimethylbenzylamino)-1-(tert-butylamino)-1-oxopropan-2-ylamino)-2-oxoethyl)-3-(trifluoromethyl)benzamide]	> 3000
Cc1ccc(CNC[C@H](NC(=O)CNC(=O)c2cc(N)cc(C(F)(F)F)c2)C(=O)NC(C)(C)C)c(C)c1 [(S)-N-(2-(3-(2,4-dimethylbenzylamino)-1-(tert-butylamino)-1-oxopropan-2-ylamino)-2-oxoethyl)-3-amino-5-(trifluoromethyl)benzamide]	720
Cc1ccc(CNC[C@H](NC(=O)CNC(=O)c2cccc(C(F)(F)F)c2)C(N)=O)c(C)c1 [(S)-N-(2-(3-(2,4-dimethylbenzylamino)-1-amino-1-oxopropan-2-ylamino)-2-oxoethyl)-3-(trifluoromethyl)benzamide]	> 1500
